Residual activity data for three molecules are collected here from the kinase profiling compilation of Christmann-Franck et al. (2016).

Molecules are shown by their SMILES. “And” between values parts separate entries of the source, which are not always exact repeats. Equal values may be shown once.

Chain of CAMK2D (human) (Q13557 whole entry, looked up): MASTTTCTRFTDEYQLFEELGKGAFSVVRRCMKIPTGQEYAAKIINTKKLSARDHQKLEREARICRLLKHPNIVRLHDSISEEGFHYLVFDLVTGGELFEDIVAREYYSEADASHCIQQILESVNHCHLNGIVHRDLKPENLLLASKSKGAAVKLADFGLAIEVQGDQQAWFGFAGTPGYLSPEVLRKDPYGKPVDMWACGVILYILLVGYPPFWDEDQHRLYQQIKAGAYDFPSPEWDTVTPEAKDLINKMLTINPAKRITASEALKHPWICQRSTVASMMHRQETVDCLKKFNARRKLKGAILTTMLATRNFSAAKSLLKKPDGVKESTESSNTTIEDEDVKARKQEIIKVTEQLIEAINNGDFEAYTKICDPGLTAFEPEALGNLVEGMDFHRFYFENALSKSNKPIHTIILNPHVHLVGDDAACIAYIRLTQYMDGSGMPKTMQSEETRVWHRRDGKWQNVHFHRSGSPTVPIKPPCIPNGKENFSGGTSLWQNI
Chain of CAMK2A (human) (Q9UQM7 whole entry, looked up): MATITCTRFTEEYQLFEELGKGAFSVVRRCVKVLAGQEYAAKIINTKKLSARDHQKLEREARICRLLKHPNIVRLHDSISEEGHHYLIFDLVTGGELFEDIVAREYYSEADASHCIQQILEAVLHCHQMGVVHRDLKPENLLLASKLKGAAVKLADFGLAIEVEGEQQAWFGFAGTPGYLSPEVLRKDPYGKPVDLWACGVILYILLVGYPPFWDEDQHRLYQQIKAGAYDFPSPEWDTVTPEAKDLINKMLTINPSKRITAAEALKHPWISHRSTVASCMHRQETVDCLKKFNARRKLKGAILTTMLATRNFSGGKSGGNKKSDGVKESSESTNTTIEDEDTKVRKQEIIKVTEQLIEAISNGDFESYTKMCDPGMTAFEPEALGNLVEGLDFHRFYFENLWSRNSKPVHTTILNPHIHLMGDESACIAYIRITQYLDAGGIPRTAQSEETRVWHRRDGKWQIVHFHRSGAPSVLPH
Chain of JAK3 JH1 JH2 (human) (P52333 whole entry, looked up): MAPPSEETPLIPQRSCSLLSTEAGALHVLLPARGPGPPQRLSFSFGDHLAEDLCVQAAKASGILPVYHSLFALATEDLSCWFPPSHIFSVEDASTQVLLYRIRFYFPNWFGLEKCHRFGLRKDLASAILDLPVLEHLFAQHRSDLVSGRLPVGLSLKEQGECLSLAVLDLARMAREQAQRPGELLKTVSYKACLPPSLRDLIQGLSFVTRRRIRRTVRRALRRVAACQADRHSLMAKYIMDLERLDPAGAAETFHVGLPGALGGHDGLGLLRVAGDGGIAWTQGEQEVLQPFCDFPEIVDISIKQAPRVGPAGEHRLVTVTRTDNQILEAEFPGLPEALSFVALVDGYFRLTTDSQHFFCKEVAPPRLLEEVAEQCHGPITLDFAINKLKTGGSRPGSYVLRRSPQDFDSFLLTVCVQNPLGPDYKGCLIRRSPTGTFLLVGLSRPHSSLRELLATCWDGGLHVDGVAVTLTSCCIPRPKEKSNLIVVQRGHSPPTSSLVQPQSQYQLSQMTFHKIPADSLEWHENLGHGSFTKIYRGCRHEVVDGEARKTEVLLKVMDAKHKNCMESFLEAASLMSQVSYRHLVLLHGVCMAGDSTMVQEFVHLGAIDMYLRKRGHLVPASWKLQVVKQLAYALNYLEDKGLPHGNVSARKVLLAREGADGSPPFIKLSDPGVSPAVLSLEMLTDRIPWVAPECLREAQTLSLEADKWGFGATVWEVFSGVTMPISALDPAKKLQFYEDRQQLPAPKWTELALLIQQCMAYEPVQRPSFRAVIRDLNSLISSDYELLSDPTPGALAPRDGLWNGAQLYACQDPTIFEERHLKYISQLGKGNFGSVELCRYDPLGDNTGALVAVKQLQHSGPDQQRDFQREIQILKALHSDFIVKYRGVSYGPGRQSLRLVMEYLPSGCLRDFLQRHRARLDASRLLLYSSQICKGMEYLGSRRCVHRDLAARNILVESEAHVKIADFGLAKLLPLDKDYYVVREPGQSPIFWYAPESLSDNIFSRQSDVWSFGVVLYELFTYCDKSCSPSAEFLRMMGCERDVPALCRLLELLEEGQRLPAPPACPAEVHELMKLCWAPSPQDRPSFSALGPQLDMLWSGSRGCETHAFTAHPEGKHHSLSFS
Chain of CHEK1 (human) (O14757 whole entry, looked up): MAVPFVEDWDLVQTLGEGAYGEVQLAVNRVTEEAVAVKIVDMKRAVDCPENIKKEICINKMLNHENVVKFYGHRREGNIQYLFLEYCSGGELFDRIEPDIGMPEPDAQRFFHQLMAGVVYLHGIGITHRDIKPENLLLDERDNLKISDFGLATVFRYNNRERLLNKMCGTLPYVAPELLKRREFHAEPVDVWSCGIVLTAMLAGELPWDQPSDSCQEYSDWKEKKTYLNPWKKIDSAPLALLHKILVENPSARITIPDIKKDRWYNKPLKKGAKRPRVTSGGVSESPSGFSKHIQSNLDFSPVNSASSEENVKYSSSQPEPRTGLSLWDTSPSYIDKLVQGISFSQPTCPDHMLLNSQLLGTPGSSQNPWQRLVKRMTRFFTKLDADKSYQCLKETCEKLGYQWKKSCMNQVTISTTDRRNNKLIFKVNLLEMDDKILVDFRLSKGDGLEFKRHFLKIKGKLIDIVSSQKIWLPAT

The first assay deals with PRKACA (human) (UniProt P17612). The assay can be described thus: radiometric filter-binding kinase assay, Kinase HotSpot. The note with it: compound 0.5 µM; ATP 10 µM.
As for `CCN(CC)C(=O)c1ccc(Nc2nc(OCC3CCCCC3)c3nc[nH]c3n2)cc1`, the residual activity – broadly, the signal under treatment as a percentage of the control signal – is 93.7%.
On the same count and under the same terms, to `O=C(Nc1cccc(Nc2nccc(Nc3cccc(C(F)(F)F)c3)n2)c1)C1CC1` belongs 91.7%.

For the next assay, the target named is SRPK3 (human) (UniProt Q9UPE1). The description is as above. The note with it: compound 0.5 µM; ATP 10 µM.
Chain of SRPK3 (human) (Q9UPE1 whole entry, looked up): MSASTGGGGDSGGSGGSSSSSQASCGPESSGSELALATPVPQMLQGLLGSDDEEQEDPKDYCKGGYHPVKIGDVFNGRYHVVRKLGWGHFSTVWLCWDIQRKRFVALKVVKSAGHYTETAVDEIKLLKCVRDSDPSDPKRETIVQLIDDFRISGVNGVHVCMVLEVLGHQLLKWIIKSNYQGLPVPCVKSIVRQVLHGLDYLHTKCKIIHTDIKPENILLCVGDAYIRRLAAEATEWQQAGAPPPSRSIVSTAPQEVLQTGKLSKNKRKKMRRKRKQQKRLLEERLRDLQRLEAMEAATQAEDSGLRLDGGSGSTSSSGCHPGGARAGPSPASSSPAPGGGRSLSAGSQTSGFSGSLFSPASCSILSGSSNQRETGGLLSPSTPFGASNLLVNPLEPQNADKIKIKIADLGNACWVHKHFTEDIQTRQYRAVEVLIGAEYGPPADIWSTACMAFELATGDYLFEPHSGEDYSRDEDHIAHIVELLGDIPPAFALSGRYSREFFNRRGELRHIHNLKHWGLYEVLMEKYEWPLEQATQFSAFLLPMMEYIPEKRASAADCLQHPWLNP
With `Cc1ccc(NC2=CC(=O)c3sc(C)nc3C2=O)cc1`, the residual activity was 98.2%.
On the same count and under the same terms, to `CCN(CC)C(=O)c1ccc(Nc2nc(OCC3CCCCC3)c3nc[nH]c3n2)cc1` belongs 68.1%; to `O=C(Nc1cccc(Nc2nccc(Nc3cccc(C(F)(F)F)c3)n2)c1)C1CC1`, 101%.

A further assay concerns the target MKNK2 (human) (UniProt Q9HBH9). The assay is described as above. The note with it: compound 0.5 µM; ATP 10 µM.
In the case of `Cc1ccc(NC2=CC(=O)c3sc(C)nc3C2=O)cc1`, the residual activity was determined as 89%.
On the same count and under the same terms, next, `CCN(CC)C(=O)c1ccc(Nc2nc(OCC3CCCCC3)c3nc[nH]c3n2)cc1`: 89.3%.
Still for that read-out and setting: to `O=C(Nc1cccc(Nc2nccc(Nc3cccc(C(F)(F)F)c3)n2)c1)C1CC1` belongs 91.3%.

The target of a further assay is SYK (human) (UniProt P43405). Described as above. The note with it: compound 0.5 µM; ATP 10 µM.
As for `Cc1ccc(NC2=CC(=O)c3sc(C)nc3C2=O)cc1`, the residual activity came out at 97.9%.
Same read-out and setting: next, `CCN(CC)C(=O)c1ccc(Nc2nc(OCC3CCCCC3)c3nc[nH]c3n2)cc1`: 61.1%.
On the same count and under the same terms, next, `O=C(Nc1cccc(Nc2nccc(Nc3cccc(C(F)(F)F)c3)n2)c1)C1CC1`: 101%.

The target in the next assay is PAK1 (human) (UniProt Q13153). Described as above. As to conditions: compound 0.5 µM; ATP 10 µM.
Regarding `Cc1ccc(NC2=CC(=O)c3sc(C)nc3C2=O)cc1`, the residual activity was 87.5%.
Same read-out and setting: to `CCN(CC)C(=O)c1ccc(Nc2nc(OCC3CCCCC3)c3nc[nH]c3n2)cc1` belongs 93.8%; to `O=C(Nc1cccc(Nc2nccc(Nc3cccc(C(F)(F)F)c3)n2)c1)C1CC1`, 89.5%.

For the next assay, the target named is CDK4 CCND3 (human) (UniProt P30281+P11802). The description is as above. The note with it: compound 0.5 µM; ATP 10 µM.
Chain of CDK4 CCND3 (human) (P11802 whole entry, looked up): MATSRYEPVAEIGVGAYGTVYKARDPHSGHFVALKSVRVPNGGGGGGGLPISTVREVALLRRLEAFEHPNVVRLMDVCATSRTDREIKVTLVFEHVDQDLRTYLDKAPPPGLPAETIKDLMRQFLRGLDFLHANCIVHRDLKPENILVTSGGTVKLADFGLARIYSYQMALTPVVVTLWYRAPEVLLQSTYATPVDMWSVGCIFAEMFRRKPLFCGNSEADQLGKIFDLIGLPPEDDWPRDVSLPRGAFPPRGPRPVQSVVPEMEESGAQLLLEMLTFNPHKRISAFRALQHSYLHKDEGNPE
Chain of CDK4 CCND3 (human) (P30281 whole entry, looked up): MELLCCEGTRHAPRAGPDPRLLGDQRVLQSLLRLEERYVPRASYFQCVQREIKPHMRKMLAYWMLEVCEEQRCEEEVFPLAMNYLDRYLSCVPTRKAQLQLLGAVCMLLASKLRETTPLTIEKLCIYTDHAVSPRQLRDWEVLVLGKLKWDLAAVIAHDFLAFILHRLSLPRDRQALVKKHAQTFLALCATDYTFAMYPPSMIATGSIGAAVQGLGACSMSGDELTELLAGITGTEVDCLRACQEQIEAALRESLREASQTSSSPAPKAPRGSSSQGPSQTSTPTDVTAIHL
For `Cc1ccc(NC2=CC(=O)c3sc(C)nc3C2=O)cc1`, the residual activity came to 93.7%.
In the case of `CCN(CC)C(=O)c1ccc(Nc2nc(OCC3CCCCC3)c3nc[nH]c3n2)cc1`, the residual activity was found to be 59.2%.
On to `O=C(Nc1cccc(Nc2nccc(Nc3cccc(C(F)(F)F)c3)n2)c1)C1CC1`, for which the residual activity was found to be 103%.

The next assay has as its target IKBKE (human) (UniProt Q14164). Described as above. The note with it: compound 0.5 µM; ATP 10 µM.
As to `Cc1ccc(NC2=CC(=O)c3sc(C)nc3C2=O)cc1`, the residual activity stood at 102%.
For the molecule `CCN(CC)C(=O)c1ccc(Nc2nc(OCC3CCCCC3)c3nc[nH]c3n2)cc1`, the residual activity turned out to be 77.9%.
The same measure, in the same setting: to `O=C(Nc1cccc(Nc2nccc(Nc3cccc(C(F)(F)F)c3)n2)c1)C1CC1` belongs 97.5%.

Another assay deals with ITK (human) (UniProt Q08881). Described as above. The note with it: compound 0.5 µM; ATP 10 µM.
Turning to `Cc1ccc(NC2=CC(=O)c3sc(C)nc3C2=O)cc1`, the residual activity came out at 98.6%.
Same read-out and setting: next, `CCN(CC)C(=O)c1ccc(Nc2nc(OCC3CCCCC3)c3nc[nH]c3n2)cc1`: 57.3%.
On to `O=C(Nc1cccc(Nc2nccc(Nc3cccc(C(F)(F)F)c3)n2)c1)C1CC1`, for which the residual activity stood at 101%.

For the next assay, the target named is PRKCA (human) (UniProt P17252). The assay is described as above. As to conditions: compound 0.5 µM; ATP 10 µM.
As for `Cc1ccc(NC2=CC(=O)c3sc(C)nc3C2=O)cc1`, the residual activity was 100%.
On the same count and under the same terms, to `CCN(CC)C(=O)c1ccc(Nc2nc(OCC3CCCCC3)c3nc[nH]c3n2)cc1` belongs 82.5%; to `O=C(Nc1cccc(Nc2nccc(Nc3cccc(C(F)(F)F)c3)n2)c1)C1CC1`, 71.9%.

A further assay deals with TAOK1 (human) (UniProt Q7L7X3). Described as above. The note with it: compound 0.5 µM; ATP 10 µM.
For the molecule `Cc1ccc(NC2=CC(=O)c3sc(C)nc3C2=O)cc1`, the residual activity amounted to 99.8%.
On the same count and under the same terms, to `CCN(CC)C(=O)c1ccc(Nc2nc(OCC3CCCCC3)c3nc[nH]c3n2)cc1` belongs 57.9%.
Still for that read-out and setting: to `O=C(Nc1cccc(Nc2nccc(Nc3cccc(C(F)(F)F)c3)n2)c1)C1CC1` belongs 97.9%.

For another assay, the target named is STK24 (human) (UniProt Q9Y6E0). The description is as above. The note with it: compound 0.5 µM; ATP 10 µM.
As to `Cc1ccc(NC2=CC(=O)c3sc(C)nc3C2=O)cc1`, the residual activity was 82.8%.
Still for that read-out and setting: to `CCN(CC)C(=O)c1ccc(Nc2nc(OCC3CCCCC3)c3nc[nH]c3n2)cc1` belongs 84.5%; to `O=C(Nc1cccc(Nc2nccc(Nc3cccc(C(F)(F)F)c3)n2)c1)C1CC1`, 98.3%.

A further assay has as its target CHEK1 (human) (UniProt O14757). The description is as above. As to conditions: compound 0.5 µM; ATP 10 µM.
`Cc1ccc(NC2=CC(=O)c3sc(C)nc3C2=O)cc1`: the residual activity came out at 91.1%.
Still for that read-out and setting: next, `CCN(CC)C(=O)c1ccc(Nc2nc(OCC3CCCCC3)c3nc[nH]c3n2)cc1`: 66.1%; `O=C(Nc1cccc(Nc2nccc(Nc3cccc(C(F)(F)F)c3)n2)c1)C1CC1`: 96.6%.

In another assay the target is IRAK1 (human) (UniProt P51617). The description is as above. The note with it: compound 0.5 µM; ATP 10 µM.
Chain of IRAK1 (human) (P51617 whole entry, looked up): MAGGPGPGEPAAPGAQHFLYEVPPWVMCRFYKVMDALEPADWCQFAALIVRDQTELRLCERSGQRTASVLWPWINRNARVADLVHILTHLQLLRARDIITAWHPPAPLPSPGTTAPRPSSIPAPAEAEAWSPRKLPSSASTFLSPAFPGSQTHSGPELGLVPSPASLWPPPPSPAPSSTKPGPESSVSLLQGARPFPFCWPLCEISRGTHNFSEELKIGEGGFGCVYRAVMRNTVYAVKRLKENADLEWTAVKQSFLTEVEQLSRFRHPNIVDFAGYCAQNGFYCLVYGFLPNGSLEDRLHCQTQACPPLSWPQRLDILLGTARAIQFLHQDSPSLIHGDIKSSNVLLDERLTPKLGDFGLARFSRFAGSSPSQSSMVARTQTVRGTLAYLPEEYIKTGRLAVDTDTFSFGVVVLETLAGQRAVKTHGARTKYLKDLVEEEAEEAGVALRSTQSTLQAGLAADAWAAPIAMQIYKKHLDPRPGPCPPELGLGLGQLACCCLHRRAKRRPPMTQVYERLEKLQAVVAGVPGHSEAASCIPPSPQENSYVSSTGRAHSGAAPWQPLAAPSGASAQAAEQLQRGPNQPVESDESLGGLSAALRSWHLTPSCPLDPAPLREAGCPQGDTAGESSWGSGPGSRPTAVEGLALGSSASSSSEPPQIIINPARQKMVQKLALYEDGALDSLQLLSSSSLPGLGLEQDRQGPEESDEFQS
Turning to `Cc1ccc(NC2=CC(=O)c3sc(C)nc3C2=O)cc1`, the residual activity is 108%.
As for `CCN(CC)C(=O)c1ccc(Nc2nc(OCC3CCCCC3)c3nc[nH]c3n2)cc1`, the residual activity came out at 93.8%.
On the same count and under the same terms, next, `O=C(Nc1cccc(Nc2nccc(Nc3cccc(C(F)(F)F)c3)n2)c1)C1CC1`: 96.4%.

The next assay addresses CAMK2A (human) (UniProt Q9UQM7). Described as above. As to conditions: compound 0.5 µM; ATP 10 µM.
Turning to `Cc1ccc(NC2=CC(=O)c3sc(C)nc3C2=O)cc1`, the residual activity is 101%.
Still for that read-out and setting: next, `CCN(CC)C(=O)c1ccc(Nc2nc(OCC3CCCCC3)c3nc[nH]c3n2)cc1`: 105%.
As to `O=C(Nc1cccc(Nc2nccc(Nc3cccc(C(F)(F)F)c3)n2)c1)C1CC1`, the residual activity amounted to 98%.

Another assay concerns the target HIPK1 (human) (UniProt Q86Z02). The assay is described as above. The note with it: compound 0.5 µM; ATP 10 µM.
For the molecule `Cc1ccc(NC2=CC(=O)c3sc(C)nc3C2=O)cc1`, the residual activity stood at 96.7%.
On the same count and under the same terms, next, `CCN(CC)C(=O)c1ccc(Nc2nc(OCC3CCCCC3)c3nc[nH]c3n2)cc1`: 104%; `O=C(Nc1cccc(Nc2nccc(Nc3cccc(C(F)(F)F)c3)n2)c1)C1CC1`: 98.7%.

A further assay concerns the target CAMK2D (human) (UniProt Q13557). Described as above. As to conditions: compound 0.5 µM; ATP 10 µM.
In the case of `Cc1ccc(NC2=CC(=O)c3sc(C)nc3C2=O)cc1`, the residual activity came to 93.2%.
Same read-out and setting: to `CCN(CC)C(=O)c1ccc(Nc2nc(OCC3CCCCC3)c3nc[nH]c3n2)cc1` belongs 94.5%; to `O=C(Nc1cccc(Nc2nccc(Nc3cccc(C(F)(F)F)c3)n2)c1)C1CC1`, 93.5%.

For another assay, the target named is PRKG1 (human) (UniProt Q13976). The assay is described as above. As to conditions: compound 0.5 µM; ATP 10 µM.
Consider `Cc1ccc(NC2=CC(=O)c3sc(C)nc3C2=O)cc1`, for which the residual activity is 104% and 96.3%.
The same measure, in the same setting: to `CCN(CC)C(=O)c1ccc(Nc2nc(OCC3CCCCC3)c3nc[nH]c3n2)cc1` belongs 89.8% and 96.1%; to `O=C(Nc1cccc(Nc2nccc(Nc3cccc(C(F)(F)F)c3)n2)c1)C1CC1`, 97.6% and 99.3%.

The next assay concerns the target SRPK2 (human) (UniProt P78362). The description is as above. As to conditions: compound 0.5 µM; ATP 10 µM.
`Cc1ccc(NC2=CC(=O)c3sc(C)nc3C2=O)cc1`: the residual activity was 101%.
For `CCN(CC)C(=O)c1ccc(Nc2nc(OCC3CCCCC3)c3nc[nH]c3n2)cc1`, the residual activity came to 87.8%.
`O=C(Nc1cccc(Nc2nccc(Nc3cccc(C(F)(F)F)c3)n2)c1)C1CC1`: the residual activity was found to be 104%.

A further assay deals with SGK3 (human) (UniProt Q96BR1). The assay is described as above. The note with it: compound 0.5 µM; ATP 10 µM.
Chain of SGK3 (human) (Q96BR1 whole entry, looked up): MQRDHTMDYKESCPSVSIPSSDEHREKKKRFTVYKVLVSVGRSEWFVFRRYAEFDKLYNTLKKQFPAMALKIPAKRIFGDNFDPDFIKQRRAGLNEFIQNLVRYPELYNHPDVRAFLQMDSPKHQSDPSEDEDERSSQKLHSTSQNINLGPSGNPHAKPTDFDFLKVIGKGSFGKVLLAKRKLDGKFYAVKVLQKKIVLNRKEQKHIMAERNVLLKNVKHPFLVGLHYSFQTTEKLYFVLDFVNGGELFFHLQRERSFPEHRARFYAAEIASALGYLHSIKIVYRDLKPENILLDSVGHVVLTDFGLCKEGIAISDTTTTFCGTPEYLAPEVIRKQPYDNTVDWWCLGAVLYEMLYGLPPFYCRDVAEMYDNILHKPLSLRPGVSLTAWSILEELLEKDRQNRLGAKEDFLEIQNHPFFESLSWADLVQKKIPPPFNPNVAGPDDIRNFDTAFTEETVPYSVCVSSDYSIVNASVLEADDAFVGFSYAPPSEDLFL
On to `Cc1ccc(NC2=CC(=O)c3sc(C)nc3C2=O)cc1`, for which the residual activity was 95.2%.
Same read-out and setting: to `CCN(CC)C(=O)c1ccc(Nc2nc(OCC3CCCCC3)c3nc[nH]c3n2)cc1` belongs 97.2%; to `O=C(Nc1cccc(Nc2nccc(Nc3cccc(C(F)(F)F)c3)n2)c1)C1CC1`, 111%.

For a further assay, the target named is CDK6 CCND3 (human) (UniProt P30281+Q00534). The assay is described as above. The note with it: compound 0.5 µM; ATP 10 µM.
Take `Cc1ccc(NC2=CC(=O)c3sc(C)nc3C2=O)cc1`: the residual activity is 99.6%.
On the same count and under the same terms, to `CCN(CC)C(=O)c1ccc(Nc2nc(OCC3CCCCC3)c3nc[nH]c3n2)cc1` belongs 47.2%.
As for `O=C(Nc1cccc(Nc2nccc(Nc3cccc(C(F)(F)F)c3)n2)c1)C1CC1`, the residual activity is 98.5%.

Another assay concerns the target JAK3 JH1 JH2 (human) (UniProt P52333). The assay is described as above. The note with it: compound 0.5 µM; ATP 10 µM.
Turning to `Cc1ccc(NC2=CC(=O)c3sc(C)nc3C2=O)cc1`, the residual activity is 97.4%.
With `CCN(CC)C(=O)c1ccc(Nc2nc(OCC3CCCCC3)c3nc[nH]c3n2)cc1`, the residual activity stood at 6.39%.
Consider `O=C(Nc1cccc(Nc2nccc(Nc3cccc(C(F)(F)F)c3)n2)c1)C1CC1`, for which the residual activity was 109%.
